This note sets out measurements from US8163793B2, “Proline derivatives” (Hoffman-La Roche Inc., priority 2009, dated 2012).

One test has as its target Cat L (UniProt P07711). Put plainly: Cathepsin enzyme inhibition assay (fluorogenic peptide substrate Z-Val-Val-Arg-AMC), Cathepsin L. The following applies: enzyme 1 nM, substrate 20 μM, pH 6.5; read-out: CatL IC50. In kind it is biochemical, human and mouse. In a few lines:
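Cathepsin L at 1 nM was mixed with compound, then started with 20 μM Z-Val-Val-Arg-AMC in pH 6.5 potassium phosphate with EDTA, Triton X-100 and 5 mM DTT. AMC fluorescence (ex 360/em 465 nm) was followed over 20 min. IC50 is given in μM.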

Another test concerns the target Cathepsin S (UniProt P25774). Put plainly: Cathepsin enzyme inhibition assay (fluorogenic peptide substrate Z-Val-Val-Arg-AMC), Cathepsin S. In kind it is biochemical, human and mouse. The following applies: enzyme 1 nM, substrate 20 μM, pH 6.5; read-out: CatS IC50. The method, boiled down: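 Human or mouse cathepsin S (1 nM) was run in 100 mM potassium phosphate pH 6.5 with 5 mM EDTA, 0.001% Triton X-100 and 5 mM DTT. The rise in AMC fluorescence from cleavage was measured, and IC50 values were calculated by standard methods and expressed in μM.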

Structures can show the parent of a compound that is named as a salt.

As for `N#CC1(NC(=O)[C@@H]2C[C@@H](S(=O)(=O)c3ccccc3C(F)(F)F)CN2C(=O)C2CCCCC2)CC1` [Example 104, (2S,4R)-1-Cyclohexanecarbonyl-4-(2-trifluoromethyl-benzenesulfonyl)-pyrrolidine-2-carboxylic acid (1-cyano-cyclopropyl)-amide], the values for the IC50 at Cat L and at Cathepsin S were no less than 25000 nM and 0.2 nM, respectively.
With `N#CC1(NC(=O)[C@@H]2C[C@@H](S(=O)(=O)c3ccccc3C(F)(F)F)CN2C(=O)C2CCC(C(F)(F)F)CC2)CC1` (stereo partly drawn) [Example 105, (2S,4R)-4-(2-Trifluoromethyl-benzenesulfonyl)-1-(4-trifluoromethyl-cyclohexanecarbonyl)-pyrrolidine-2-carboxylic acid (1-cyano-cyclopropyl)-amide], the figures for the IC50 on Cat L and at Cathepsin S were no less than 25000 nM and 0.3 nM, respectively.
The corresponding values for `N#CC1(NC(=O)[C@@H]2C[C@@H](S(=O)(=O)c3ccccc3C(F)(F)F)CN2C(=O)c2ccc(F)cc2)CC1` [Example 106, (2S,4R)-1-(4-Fluoro-benzoyl)-4-(2-trifluoromethyl-benzenesulfonyl)-pyrrolidine-2-carboxylic Acid (1-cyano-cyclopropyl)-amide] are no less than 25000 nM and 0.4 nM.
The corresponding values for `N#CC1(NC(=O)[C@@H]2C[C@@H](S(=O)(=O)c3ccccc3C(F)(F)F)CN2Cc2ccccc2)CC1` [Example 107, (2S,4R)-1-Benzyl-4-(2-trifluoromethyl-benzenesulfonyl)-pyrrolidine-2-carboxylic acid (1-cyano-cyclopropyl)-amide] are 16600 nM and 25 nM.
On to `N#CC1(NC(=O)[C@@H]2C[C@@H](S(=O)(=O)c3ccccc3C(F)(F)F)CN2Cc2ccncc2)CC1` [Example 108, (2S,4R)-1-Pyridin-4-ylmethyl-4-(2-trifluoromethyl-benzenesulfonyl)-pyrrolidine-2-carboxylic Acid (1-cyano-cyclopropyl)-amide], for which the results for the IC50 at Cat L and at Cathepsin S were 47700 nM and 5.8 nM, respectively.
The corresponding values for `N#CC1(NC(=O)[C@@H]2C[C@@H](S(=O)(=O)c3ccccc3C(F)(F)F)CN2CC(F)(F)C(F)(F)F)CC1` [Example 109, (2S,4R)-1-(2,2,3,3,3-Pentafluoro-propyl)-4-(2-trifluoromethyl-benzenesulfonyl)-pyrrolidine-2-carboxylic acid (1-cyano-cyclopropyl)-amide] are no less than 25000 nM and 12.7 nM.
For the compound `COCCN1C[C@H](S(=O)(=O)c2ccccc2C(F)(F)F)C[C@H]1C(=O)NC1(C#N)CC1` [Example 110, (2S,4R)-1-(2-Methoxy-ethyl)-4-(2-trifluoromethyl-benzenesulfonyl)-pyrrolidine-2-carboxylic Acid (1-cyano-cyclopropyl)-amide], the IC50 (usually the point on the concentration scale where inhibition reaches its midpoint) at Cat L was no less than 25000 nM; at Cathepsin S it was 60.5 nM.
In the case of `CC(=O)N1C[C@H](S(=O)(=O)c2ccc(-n3cccn3)cc2C(F)(F)F)C[C@H]1C(=O)NC1(C#N)CC1` [Example 111, (2S,4R)-1-Acetyl-4-(4-pyrazol-1-yl-2-trifluoromethyl-benzenesulfonyl)-pyrrolidine-2-carboxylic acid (1-cyano-cyclopropyl)-amide], the figures for the IC50 on Cat L and on Cathepsin S were no less than 25000 nM and 0.7 nM, respectively.
`CC(=O)N1C[C@H](S(=O)(=O)c2ccc(-n3ccnc3)cc2C(F)(F)F)C[C@H]1C(=O)NC1(C#N)CC1` [Example 112, (2S,4R)-1-Acetyl-4-(4-imidazol-1-yl-2-trifluoromethyl-benzenesulfonyl)-pyrrolidine-2-carboxylic acid (1-cyano-cyclopropyl)-amide]: the IC50 is no less than 25000 nM at Cat L and 0.8 nM at Cathepsin S.
The matching figures for `CC(C)CS(=O)(=O)[C@@H]1C[C@@H](C(=O)NC2(C#N)CC2)N(C(=O)OC(C)(C)C)C1` [Example 113, (2S,4R)-2-(1-Cyano-cyclopropylcarbamoyl)-4-(2-methyl-propane-1-sulfonyl)-pyrrolidine-1-carboxylic acid tert-butyl ester]: no less than 25000 nM and 3130 nM.
The corresponding values for `CC(C)CS(=O)(=O)[C@H]1CN[C@H](C(=O)NC2(C#N)CC2)C1` [Example 114, (2S,4R)-4-(2-Methyl-propane-1-sulfonyl)-pyrrolidine-2-carboxylic acid (1-cyano-cyclopropyl)-amide Hydrochloride] are no less than 25000 nM and 3500 nM.
The matching figures for `N#CCNC(=O)C12CC(S(=O)(=O)c3ccccc3)CN1CC(F)(F)C2` (centres unmarked) [Example 115, 6-Benzenesulfonyl-2,2-difluoro-tetrahydro-pyrrolizine-7a-carboxylic acid cyanomethyl-amide]: 3470 nM and 48 nM.
For the compound `N#CCNC(=O)C12CC(F)(F)CN1CCC2S(=O)(=O)c1ccccc1` (centres unmarked) [Example 116, 1-Benzenesulfonyl-6,6-difluoro-tetrahydro-pyrrolizine-7a-carboxylic acid cyanomethyl-amide, diasteromer Δ1], the IC50 on Cat L was no less than 25000 nM; at Cathepsin S, 35.5 nM.
In the case of `N#CCNC(=O)C12CC(F)(F)CN1CCC2S(=O)(=O)c1ccccc1` (centres unmarked) [Example 117, 1-Benzenesulfonyl-6,6-difluoro-tetrahydro-pyrrolizine-7a-carboxylic acid cyanomethyl-amide, diasteromer Δ2], the IC50 was no less than 25000 nM at Cat L and 86.5 nM on Cathepsin S.
The corresponding values for `COC(=O)c1ccc(C(=O)N2C[C@H](S(=O)(=O)c3ccccc3C(F)(F)F)C[C@H]2C(=O)NC2(C#N)CC2)cc1` [Example 118, 4-[(2S,4R)-2-(1-Cyano-cyclopropylcarbamoyl)-4-(2-trifluoromethyl-benzenesulfonyl)-pyrrolidine-1-carbonyl]-benzoic acid methyl ester] are no less than 25000 nM and 0.9 nM.
For `CC(C)(C)OC(=O)N1C[C@H](S(=O)(=O)c2ccc(-n3cccn3)cc2Cl)C[C@H]1C(=O)NC1(C#N)CC1` [Example 120, (2S,4R)-4-(2-Chloro-4-pyrazol-1-yl-benzenesulfonyl)-2-(1-cyano-cyclopropylcarbamoyl)-pyrrolidine-1-carboxylic acid tert-butyl ester], the IC50 at Cat L is no less than 25000 nM; on Cathepsin S it was 2.8 nM.
The matching figures for `CC(C)(C)OC(=O)N1C[C@H](S(=O)(=O)c2ccc(N3CCCCC3)cc2Cl)C[C@H]1C(=O)NC1(C#N)CC1` [Example 121, (2S,4R)-4-(2-Chloro-4-piperidin-1-yl-benzenesulfonyl)-2-(1-cyano-cyclopropylcarbamoyl)-pyrrolidine-1-carboxylic acid tert.-butyl ester]: 23700 nM and 4.1 nM.
As to `CC(Oc1ccc(S(=O)(=O)[C@@H]2C[C@@H](C(=O)NC3(C#N)CC3)N(C(=O)OC(C)(C)C)C2)c(Cl)c1)C(F)(F)F` (stereo partly drawn) [Example 122, (2S,4R)-4-[2-Chloro-4-(2,2,2-trifluoro-1-methyl-ethoxy)-benzenesulfonyl]-2-(1-cyano-cyclopropylcarbamoyl)-pyrrolidine-1-carboxylic acid tert.-butyl ester], the IC50 at Cat L came out at 23800 nM; on Cathepsin S it was 9.4 nM.
The corresponding values for `CC(C)C[C@]1(C(=O)NC2(C#N)CC2)C[C@H](S(C)(=O)=O)[C@@H](c2ccc(F)cc2)N1` [Example 123, (2R,4S,5R)-5-(4-Fluoro-phenyl)-2-isobutyl-4-methanesulfonyl-pyrrolidine-2-carboxylic acid (1-cyano-cyclopropyl)-amide] are no less than 25000 nM and 2610 nM.
With `CC(C)(C)OC(=O)N1C[C@H](S(=O)(=O)c2ccc(F)cc2Cl)C[C@H]1C(=O)NC1(C#N)CC1` [Example 124, (2S,4R)-4-(2-Chloro-4-fluoro-benzenesulfonyl)-2-(1-cyano-cyclopropylcarbamoyl)-pyrrolidine-1-carboxylic acid tert.-butyl ester], the IC50 was no less than 25000 nM at Cat L and 12.5 nM on Cathepsin S.
Turning to `CC(C)C[C@]1(C(=O)NC2(C#N)CC2)C[C@H](S(C)(=O)=O)[C@@H](c2ccc(F)cc2)N1C(=O)OC(C)(C)C` [Example 125, (2R,4S,5R)-2-(1-Cyano-cyclopropylcarbamoyl)-5-(4-fluoro-phenyl)-2-isobutyl-4-methanesulfonyl-pyrrolidine-1-carboxylic acid tert.-butyl ester], the IC50 was no less than 25000 nM on Cat L and 195 nM on Cathepsin S.
`CC(C)C[C@]1(C(=O)NC2(C#N)CC2)C[C@H](S(=O)(=O)c2ccccc2)[C@@H](c2ccc(F)cc2)N1` [Example 126, (2R,4S,5R)-4-Benzenesulfonyl-5-(4-fluoro-phenyl)-2-isobutyl-pyrrolidine-2-carboxylic acid (1-cyano-cyclopropyl)-amide]: the results for the IC50 on Cat L and at Cathepsin S were no less than 25000 nM and 1250 nM, respectively.
With `N#CC1(NC(=O)[C@@H]2C[C@@H](S(=O)(=O)c3ccc(N4CCCCC4)cc3Cl)CN2)CC1` [Example 127, (2S,4R)-4-(2-Chloro-4-piperidin-1-yl-benzenesulfonyl)-pyrrolidine-2-carboxylic acid (1-cyano-cyclopropyl)-amide], the IC50 worked out at 6000 nM on Cat L and 2 nM on Cathepsin S.
`N#CC1(NC(=O)[C@@H]2C[C@@H](S(=O)(=O)c3ccc(-n4cccn4)cc3Cl)CN2)CC1` [Example 128, (2S,4R)-4-(2-Chloro-4-pyrazol-1-yl-benzenesulfonyl)-pyrrolidine-2-carboxylic acid (1-cyano-cyclopropyl)-amide]: the IC50 on Cat L is 17300 nM; at Cathepsin S it was 1.4 nM.
For `CC(Oc1ccc(S(=O)(=O)[C@H]2CN[C@H](C(=O)NC3(C#N)CC3)C2)c(Cl)c1)C(F)(F)F` (stereo partly drawn) [Example 129, (2S,4R)-4-[2-Chloro-4-(2,2,2-trifluoro-1-methyl-ethoxy)-benzenesulfonyl]-pyrrolidine-2-carboxylic acid (1-cyano-cyclopropyl)-amide], the IC50 on Cat L was found to be 20400 nM; at Cathepsin S it was 8 nM.
